Patent US20260083865A1, “PROSTATE SPECIFIC MEMBRANE ANTIGEN (PSMA) LIGANDS AND USE THEREOF” (priority 2022, published 2026)
Read-outs that look alike come from different tables or passages of the source. Numbered stars: 1 amine (or outer) side, 2 acyl side, 3 side chain; on linkers, the order of the positions; unused ones are H or OH. Bridge positions count the residues as written; N and C are the ends. Square brackets hold non-standard residues; d marks the D form. Side chains are listed from the residue outwards. Peptide text beside a SMILES is read from it. * marks the point of attachment. TtdsdLys(DOTA)NH2 = NC(=O)[C@@H](CCCCNC(=O)CN1CCN(CC(=O)O)CCN(CC(=O)O)CCN(CC(=O)O)CC1)NC(=O)CCC(=O)NCCCOCCOCCOCCCN*; X3 = O=C(O)CN1CCN(CC(=O)O)CCN(CC(=O)NCCCOCCOCCOCCCN*)CCN(CC(=O)O)CC1; DOTA = O=C(O)CN1CCN(CC(=O)O)CCN(CC(=O)*)CCN(CC(=O)O)CC1; Ala(quinolin-3-yl) = N[C@@H](Cc1cnc2ccccc2c1)C(=O)O; Tyr(3-I) = N[C@@H](Cc1ccc(O)c(I)c1)C(=O)O; Phe(4-Cl) = N[C@@H](Cc1ccc(Cl)cc1)C(=O)O; Propanoyl(3-SO2NH2) = NS(=O)(=O)CCC(=O)*; Arg(Me2s) = CN=C(NC)NCCC[C@H](N)C(=O)O; Arg(Me) = CNC(=N)NCCC[C@H](N)C(=O)O; Dap(CONH2) = NC(=O)NC[C@H](N)C(=O)O; αMeF = C[C@](N)(Cc1ccccc1)C(=O)O; X1 = O=C(CC1CCN([*:1])CC1)[*:2]; Cit = NC(=O)NCCC[C@H](N)C(=O)O; Lys(Me) = CNCCCC[C@H](N)C(=O)O; dTle = CC(C)(C)[C@@H](N)C(=O)O; Suc = O=C(CCC(=O)[*:2])[*:1]; Tle = CC(C)(C)[C@H](N)C(=O)O; Aib = CC(C)(N)C(=O)O; Bn = c1ccc(C*)cc1

Experiments:
[1] = molecular target: T1, PSMA-expressing C4-2 cells (Homo sapiens, UniProt Q04609); assay: FACS binding assay (competition with 50 nM PSM-0183); settings: read-out: pIC50 [C4-2] CAT (converted)
T1 construct: PSMA-expressing C4-2 cells (ATCC, Cat. No. CRL-3314) were cultured in RPMI-1640; host or cells: C4-2 cells
Summary of the method: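 C4-2 cells were incubated 1 h at 4 °C with 50 nM AF488-labelled peptide PSM-0183 plus increasing test compound concentrations, then washed twice in ice-cold buffer. Median fluorescence in the AF488 channel was read by flow cytometry. IC50/pIC50 was derived by 4PL fitting of MFI versus concentration.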

[2] = molecular target: T2, Fc-fusion protein of human PSMA (hPSMA-Fc) (Homo sapiens, UniProt Q04609); assay: Surface plasmon resonance assay (Biacore T200, single cycle kinetic); type: binding; settings: read-out: pKD CAT (converted)
T2 construct: purchased Acro Biosystems PSA-H5264
Summary of the method: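 hPSMA-Fc was captured (~1000 RU) on an Fc-binding-peptide CM5 chip, and compounds were run in single cycle kinetic mode at 25° C in HBST with 0.1% DMSO. Double-blank-corrected sensorgrams were fitted to a 1:1 Langmuir model to give KD, reported as pKD.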

[3] = FACS binding, C4-2 cells, competition with 50 nM PSM-0183, category
[4] = SPR, hPSMA-Fc, single cycle kinetic, 25° C., category
[5] = FACS binding, PSMA-expressing C4-2 cells, pIC50 category
[6] = PSMA SPR assay, hPSMA-Fc, 25° C., pKD category
[7] = pIC50 category of FACS binding, C4-2 cells
[8] = pKD category for PSMA SPR activity assay, hPSMA-Fc, 25° C.

T2 sequence (Q04609 44-750 limits assumed): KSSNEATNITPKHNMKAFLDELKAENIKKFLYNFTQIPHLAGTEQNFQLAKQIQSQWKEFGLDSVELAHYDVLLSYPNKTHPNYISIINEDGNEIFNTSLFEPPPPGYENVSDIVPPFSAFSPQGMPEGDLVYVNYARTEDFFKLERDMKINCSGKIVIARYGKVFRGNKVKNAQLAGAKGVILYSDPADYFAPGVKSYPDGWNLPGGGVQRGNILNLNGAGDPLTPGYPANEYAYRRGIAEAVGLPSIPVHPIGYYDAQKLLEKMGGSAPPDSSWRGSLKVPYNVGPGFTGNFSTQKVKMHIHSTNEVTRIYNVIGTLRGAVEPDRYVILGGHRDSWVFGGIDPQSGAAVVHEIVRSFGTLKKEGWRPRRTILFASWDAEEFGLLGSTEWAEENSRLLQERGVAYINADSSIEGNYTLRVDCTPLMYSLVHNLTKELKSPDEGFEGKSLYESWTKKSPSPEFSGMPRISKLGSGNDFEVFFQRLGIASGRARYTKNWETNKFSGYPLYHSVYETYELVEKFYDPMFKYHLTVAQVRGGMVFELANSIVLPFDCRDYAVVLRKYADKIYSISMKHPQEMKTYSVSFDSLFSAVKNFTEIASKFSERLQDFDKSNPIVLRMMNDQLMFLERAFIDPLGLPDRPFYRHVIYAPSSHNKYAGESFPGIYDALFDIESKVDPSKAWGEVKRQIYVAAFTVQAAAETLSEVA
T1 sequence (Q04609 whole entry): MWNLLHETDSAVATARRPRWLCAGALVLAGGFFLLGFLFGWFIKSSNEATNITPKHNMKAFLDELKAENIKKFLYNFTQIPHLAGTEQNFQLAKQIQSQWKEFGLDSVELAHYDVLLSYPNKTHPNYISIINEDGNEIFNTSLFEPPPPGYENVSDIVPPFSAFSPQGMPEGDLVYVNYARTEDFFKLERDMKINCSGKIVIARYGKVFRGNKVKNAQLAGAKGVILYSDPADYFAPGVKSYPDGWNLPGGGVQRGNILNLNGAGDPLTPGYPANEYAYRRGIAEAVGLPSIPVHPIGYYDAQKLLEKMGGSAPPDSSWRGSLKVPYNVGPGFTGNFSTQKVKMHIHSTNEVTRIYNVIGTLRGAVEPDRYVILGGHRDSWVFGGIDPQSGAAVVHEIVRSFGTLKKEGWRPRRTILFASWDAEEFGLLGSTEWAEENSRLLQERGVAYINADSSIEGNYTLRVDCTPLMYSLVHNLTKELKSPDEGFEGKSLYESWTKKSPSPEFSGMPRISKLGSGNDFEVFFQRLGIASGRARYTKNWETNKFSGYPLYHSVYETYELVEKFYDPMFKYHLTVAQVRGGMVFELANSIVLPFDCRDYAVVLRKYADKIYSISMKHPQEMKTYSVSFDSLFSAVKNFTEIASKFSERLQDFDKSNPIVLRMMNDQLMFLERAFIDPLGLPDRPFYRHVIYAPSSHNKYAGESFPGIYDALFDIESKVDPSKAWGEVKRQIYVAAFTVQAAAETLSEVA

Row | Compound | IC50 [1, 5] [µM] | Kd [2, 6] [µM] | IC50 [1, 7] [µM] | Kd [2, 8] [µM] | also measured
1 | C[C@@H](O)[C@H](NC(=O)[C@@H](NC(=O)[C@@H]1CSSC[C@H](NC(=O)[C@H](Cc2ccccc2)NC(=O)C(C)(C)NC(=O)CCS(N)(=O)=O)C(=O)N[C@@H](CCCCN)C(=O)N[C@@H](CCCNC(=N)N)C(=O)NC(C)(C)C(=O)N[C@@H](CC(N)=O)C(=O)N1)C(C)(C)C)C(N)=O [PSM-0224, SaPr-Aib-Phe-[Cys-Lys-Arg-Aib-Asn-Cys]-Tle-Thr-NH2] ({Propanoyl(3-SO2NH2)}-[Aib]FCKR[Aib]NC[Tle]T-NH2; disulfide 3-8) | – | – | – | – | IC50 [1, 3]: < 0.2 µM; Kd [2, 4]: < 0.0126 µM
2 | CNC(=N)NCCC[C@@H]1NC(=O)[C@H](CCCCN)NC(=O)[C@@H](NC(=O)[C@H](Cc2ccc(Cl)cc2)NC(=O)C(C)(C)NC(=O)[C@@H](NC(=O)CC2CCN(C(=O)CN3CCN(CC(=O)O)CCN(CC(=O)O)CCN(CC(=O)O)CC3)CC2)[C@@H](C)O)CSSC[C@@H](C(=O)N[C@H](C(=O)N[C@H](C(N)=O)[C@@H](C)O)C(C)(C)C)NC(=O)[C@H](CC(N)=O)NC(=O)C(C)(C)NC1=O [PSM-0351, DOTA-Cmp-Thr-Aib-Pcf-[Cys-Lys-Arg(Me)-Aib-Asn-Cys]-Tle-Thr-NH2] ({DOTA}-[X1]T[Aib][Phe(4-Cl)]CK[Arg(Me)][Aib]NC[Tle]T-NH2; disulfide 5-10) | < 0.2 | < 0.0126 | – | – | –
3 | CC(=O)N[C@H](C(=O)NC(C)(C)C(=O)N[C@@H](Cc1ccccc1)C(=O)N[C@H]1CSSC[C@@H](C(=O)N[C@H](C(=O)N[C@H](C(N)=O)[C@@H](C)O)C(C)(C)C)NC(=O)[C@H](CC(N)=O)NC(=O)[C@H](CCCCNC(=O)CCC(=O)NCCCOCCOCCOCCCNC(=O)CN2CCN(CC(=O)O)CCN(CC(=O)O)CCN(CC(=O)O)CC2)NC(=O)[C@H](CCCNC(=N)N)NC(=O)[C@H](CCCCN)NC1=O)[C@@H](C)O [PSM-0465, Ac-Thr-Aib-Phe-[Cys-Lys-Arg-Lys(DOTA-Ttds)-Asn-Cys]-Tle-Thr-NH2] (Ac-T[Aib]FCKRK([Suc-X3])NC[Tle]T-NH2; disulfide 4-9) | – | – | < 0.2 | < 0.0126 | –
4 | CC(=O)N[C@H](C(=O)NC(C)(C)C(=O)N[C@@H](Cc1ccccc1)C(=O)N[C@H]1CSSC[C@@H](C(=O)N[C@@H](C(=O)N[C@H](C(N)=O)[C@@H](C)O)C(C)(C)C)NC(=O)[C@H](CC(N)=O)NC(=O)C(C)(C)NC(=O)[C@H](CCCNC(=N)N)NC(=O)[C@H](CCCCN)NC1=O)[C@@H](C)O [PSM-0350, Ac-Thr-Aib-Phe-[Cys-Lys-Arg-Aib-Asn-Cys]-leu-Thr-NH2] (Ac-T[Aib]FCKR[Aib]NC[dTle]T-NH2; disulfide 4-9) | 0.2 to 1.26 | 0.126 to 0.501 | – | – | –
5 | CNCCCC[C@@H]1NC(=O)[C@@H](NC(=O)[C@H](Cc2cnc3ccccc3c2)NC(=O)C(C)(C)NC(=O)[C@@H](NC(=O)CC2CCN(C(=O)CN3CCN(CC(=O)O)CCN(CC(=O)O)CCN(CC(=O)O)CC3)CC2)[C@@H](C)O)CSSC[C@@H](C(=O)N[C@H](C(=O)N[C@H](C(N)=O)[C@@H](C)O)C(C)(C)C)NC(=O)[C@H](CC(N)=O)NC(=O)C(C)(C)NC(=O)[C@H](CCCNC(=N)NC)NC1=O [PSM-0337, DOTA-Cmp-Thr-Aib-2Qi-[Cys-Lys(Me)-Arg(Me)-Aib-Asn-Cys]-Tle-Thr-NH2] ({DOTA}-[X1]T[Aib][Ala(quinolin-3-yl)]C[Lys(Me)][Arg(Me)][Aib]NC[Tle]T-NH2; disulfide 5-10) | 1.26 to 3.16 | > 0.501 | – | – | –
6 | CC(=O)N[C@H](C(=O)NC(C)(C)C(=O)N[C@@H](Cc1ccccc1)C(=O)N[C@H]1CSSC[C@@H](C(=O)N[C@H](C(=O)N[C@H](C(=O)N[C@@H](CC(=O)O)C(N)=O)[C@@H](C)O)C(C)(C)C)NC(=O)[C@H](CC(N)=O)NC(=O)[C@H](C)NC(=O)[C@H](CNC(N)=O)NC(=O)[C@H](CCCCN)NC1=O)[C@@H](C)O [PSM-0180, Ac-Thr-Aib-Phe-[Cys-Lys-Gln-Ala-Asn-Cys]-Tle-Thr-Asp-NH2] (Ac-T[Aib]FCK[Dap(CONH2)]ANC[Tle]TD-NH2; disulfide 4-9) | – | – | – | – | IC50 [1, 3]: < 0.2 µM; Kd [2, 4]: 0.0126 to 0.126 µM
7 | CNCCCC[C@@H]1NC(=O)[C@@H](NC(=O)[C@H](Cc2ccc(O)c(I)c2)NC(=O)C(C)(C)NC(=O)[C@@H](NC(C)=O)[C@@H](C)O)CSSC[C@@H](C(=O)N[C@H](C(=O)N[C@H](C(N)=O)[C@@H](C)O)C(C)(C)C)NC(=O)[C@H](CC(N)=O)NC(=O)C(C)(C)NC(=O)[C@H](CCCNC(=N)NC)NC1=O [PSM-0387, Ac-Thr-Aib-Miy-[Cys-Lys(Me)-Arg(Me)-Aib-Asn-Cys]-Tle-Thr-NH2] (Ac-T[Aib][Tyr(3-I)]C[Lys(Me)][Arg(Me)][Aib]NC[Tle]T-NH2; disulfide 4-9) | – | – | > 3.16 | > 0.501 | –
8 | C/N=C(/NC)NCCC[C@@H]1NC(=O)[C@H](CCCCNC)NC(=O)[C@@H](NC(=O)[C@H](Cc2ccc(Cl)cc2)NC(=O)C(C)(C)NC(=O)[C@@H](NC(=O)CC2CCN(C(=O)CN3CCN(CC(=O)O)CCN(CC(=O)O)CCN(CC(=O)O)CC3)CC2)[C@@H](C)O)CSSC[C@@H](C(=O)N[C@H](C(=O)N[C@H](C(N)=O)[C@@H](C)O)C(C)(C)C)NC(=O)[C@H](CC(N)=O)NC(=O)C(C)(C)NC1=O [PSM-0499, DOTA-Cmp-Thr-Aib-Pcf-[Cys-Lys(Me)-Egd-Aib-Asn-Cys]-Tle-Thr-NH2] ({DOTA}-[X1]T[Aib][Phe(4-Cl)]C[Lys(Me)][Arg(Me2s)][Aib]NC[Tle]T-NH2; disulfide 5-10) | – | – | < 0.2 | < 0.0126 | –
9 | CC(=O)NC(C)(C)C(=O)N[C@@H](Cc1ccc(Cl)cc1)C(=O)N[C@H]1CSSC[C@@H](C(=O)N[C@H](C(=O)N[C@H](C(N)=O)[C@@H](C)O)C(C)(C)C)NC(=O)[C@H](CC(N)=O)NC(=O)C(C)(C)NC(=O)[C@H](CCCNC(=N)N)NC(=O)[C@H](CCCCN)NC1=O [PSM-0559, Ac-Aib-Pcf-[Cys-Lys-Arg-Aib-Asn-Cys]-Tle-Thr-NH2] (Ac-[Aib][Phe(4-Cl)]CKR[Aib]NC[Tle]T-NH2; disulfide 3-8) | – | – | – | – | IC50 ([1]; FACS binding, C4-2 cells, category): < 0.2 µM; Kd ([2]; PSMA SPR assay, category): < 0.0126 µM
10 | CC(=O)N[C@H](C(=O)N[C@@H](C)C(=O)N[C@@H](Cc1ccccc1)C(=O)N[C@H]1CSSC[C@@H](C(=O)N[C@@H](CC(C)C)C(=O)N[C@H](C(=O)N[C@@H](CC(=O)O)C(=O)NCCCOCCOCCOCCCNC(=O)CCC(=O)N[C@H](CCCCNC(=O)CN2CCN(CC(=O)O)CCN(CC(=O)O)CCN(CC(=O)O)CC2)C(N)=O)[C@@H](C)O)NC(=O)[C@H](CC(N)=O)NC(=O)[C@H](C)NC(=O)[C@H](CCCNC(=N)N)NC(=O)[C@H](CCCCN)NC1=O)[C@@H](C)O [PSM-0330, Ac-Thr-Ala-Phe-[Cys-Lys-Arg-Ala-Asn-Cys]-Leu-Thr-Asp-Ttds-lys(DOTA)-NH2] (Ac-TAFCKRANCLTD-{TtdsdLys(DOTA)NH2}; disulfide 4-9) | 0.2 to 1.26 | 0.0126 to 0.126 | – | – | –
11 | CC(=O)N[C@H](C(=O)NC(C)(C)C(=O)N[C@@H](Cc1ccc(Cl)cc1)C(=O)N[C@H]1CSSC[C@@H](C(=O)N[C@H](C(=O)N[C@H](C(=O)N2CCC(CC(=O)N[C@H](CCCCNC(=O)CN3CCN(CC(=O)O)CCN(CC(=O)O)CCN(CC(=O)O)CC3)C(N)=O)CC2)[C@@H](C)O)C(C)(C)C)NC(=O)[C@H](CC(N)=O)NC(=O)C(C)(C)NC(=O)[C@H](CCCNC(N)=O)NC(=O)[C@H](CCCCN)NC1=O)[C@@H](C)O [PSM-0329, Ac-Thr-Aib-Pcf-[Cys-Lys-Cit-Aib-Asn-Cys]-Tle-Thr-Cmp-lys(DOTA)-NH2] (Ac-T[Aib][Phe(4-Cl)]CK[Cit][Aib]NC[Tle]T[X1][dK](DOTA)-NH2; disulfide 4-9) | < 0.2 | 0.0126 to 0.126 | – | – | –
12 | CC(=O)N[C@H](C(=O)NC(C)(C)C(=O)N[C@@H](CSCc1ccccc1)C(=O)N[C@H]1CSSC[C@@H](C(=O)N[C@H](C(=O)N[C@H](C(N)=O)[C@@H](C)O)C(C)(C)C)NC(=O)[C@H](CC(N)=O)NC(=O)C(C)(C)NC(=O)[C@H](CCCNC(=N)N)NC(=O)[C@H](CCCCN)NC1=O)[C@@H](C)O [PSM-0441, Ac-Thr-Aib-Cys(Bzl)-[Cys-Lys-Arg-Aib-Asn-Cys]-Tle-Thr-NH2] (Ac-T[Aib]C(Bn)CKR[Aib]NC[Tle]T-NH2; disulfide 4-9) | – | – | < 0.2 | 0.0126 to 0.126 | –
13 | CC(=O)N[C@H](C(=O)N[C@@H](C)C(=O)N[C@@](C)(Cc1ccccc1)C(=O)N[C@H]1CSSC[C@@H](C(=O)N[C@H](C(=O)N[C@H](C(N)=O)[C@@H](C)O)C(C)(C)C)NC(=O)[C@H](CC(N)=O)NC(=O)C(C)(C)NC(=O)[C@H](CCCNC(=N)N)NC(=O)[C@H](CCCCN)NC1=O)[C@@H](C)O [PSM-0414, Ac-Thr-Ala-Amf-[Cys-Lys-Arg-Aib-Asn-Cys]-Tle-Thr-NH2] (Ac-TA[αMeF]CKR[Aib]NC[Tle]T-NH2; disulfide 4-9) | – | – | > 3.16 | 0.0126 to 0.126 | –
